These molecules were tested against T1, recombinant human mPGES-1 (Homo sapiens, UniProt O14684) (assay: mPGES-1 inhibition test (microsomes, PGH2 substrate, HTRF detection of PGE2)). Conditions: inhibition of mPGES-1 at 10 μM.
T1 construct: made in house; host or cells: Rosetta E. coli (microsomal/membrane fraction)
T1 sequence (O14684 1-152): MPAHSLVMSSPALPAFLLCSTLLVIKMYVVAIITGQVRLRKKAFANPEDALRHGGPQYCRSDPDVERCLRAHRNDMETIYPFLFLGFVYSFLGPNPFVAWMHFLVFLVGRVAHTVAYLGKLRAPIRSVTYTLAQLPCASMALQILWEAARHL
Type: biochemical
Outline: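 PGE2 formed from PGH2 in one minute by E. coli-expressed microsomal enzyme (pH 7.4, 2.5 mM GSH) was measured by competitive HTRF against a synthetic PGE2 standard curve. Compounds were preincubated 25 min at room temperature.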

| Compound | inhibition at 10 µM [%] |
| --- | --- |
| Cc1cccnc1CNC(=O)c1cc2nc(Nc3c(Cl)cccc3Cl)n(C)c2cc1F [Example 510, 2-(2,6-Dichlorophenylamino)-6-fluoro-1-methyl-N-((3-methylpyridin-2-yl)methyl)-1H-benzimidazole-5-carboxamide] | 99 |
| Cc1ccc(Nc2nc3cc(C(=O)Nc4ccc(Br)cc4)ccc3n2C)c(Cl)c1 [Example 512, N-(4-Bromophenyl)-2-(2-chloro-4-methylphenylamino)-1-methyl-1H-benzimidazole-5-carboxamide] | 99 |
| O=C(NC1CCCCC1)c1cc(Br)c2[nH]c(Nc3c(Cl)cccc3Cl)nc2c1 [Example 514, 7-Bromo-N-cyclohexyl-2-(2,6-dichlorophenylamino)-1H-benzimidazole-5-carboxamide] | 95 |
| Cn1c(Nc2ccc(Cl)cc2Cl)nc2cc(C(=O)Nc3ccc(Br)cc3)ccc21 [Example 519, N-(4-Bromophenyl)-2-(2,4-dichlorophenylamino)-1-methyl-1H-benzimidazole-5-carboxamide] | 95 |
| COc1cc2[nH]c(Nc3c(Cl)cccc3Cl)nc2cc1C(=O)NCc1ncccc1OC [Example 525, 2-(2,6-Dichlorophenylamino)-6-methoxy-N-((3-methoxypyridin-2-yl)methyl)-1H-benzimidazole-5-carboxamide] | 98 |
| Cn1c(Nc2cc(S(C)(=O)=O)ccc2Cl)nc2cc(C(=O)Nc3ccc(Br)cc3)ccc21 [Example 526, N-(4-Bromophenyl)-2-(2-chloro-5-(methylsulfonyl)phenylamino)-1-methyl-1H-benzimidazole-5-carboxamide] | 93 |
| COc1cccnc1CNC(=O)c1cc2nc(Nc3c(Cl)cccc3Cl)n(C)c2cc1F [Example 529, 2-(2,6-Dichlorophenylamino)-6-fluoro-N-((3-methoxypyridin-2-yl)methyl)-1-methyl-1H-benzimidazole-5-carboxamide] | 93 |
| C#Cc1ccccc1Nc1nc2cc(C(=O)Nc3ccc(Br)cc3)ccc2n1C [Example 538, N-(4-Bromophenyl)-2-(2-ethynylphenylamino)-1-methyl-1H-benzimidazole-5-carboxamide] | 85 |
| CNC(=O)c1ccc(Nc2nc3cc(C(=O)Nc4ccc(Br)cc4)ccc3n2C)c(Cl)c1 [Example 540, N-(4-Bromophenyl)-2-(2-chloro-4-(methylcarbamoyl)-phenylamino)-1-methyl-1H-benzimidazole-5-carboxamide] | 44 |
| CCc1ccc(C)nc1NC(=O)c1ccc2c(c1)nc(Nc1c(Cl)cccc1Cl)n2C [Example 545, 2-(2,6-Dichlorophenylamino)-N-(3-ethyl-6-methylpyridin-2-yl)-1-methyl-1H-benzimidazole-5-carboxamide] | 89 |
| Cn1c(Nc2c(F)cccc2Cl)nc2cc(C(=O)NCC3CC3)c(F)cc21 [Example 546, 2-(2-Chloro-6-fluorophenylamino)-N-(cyclopropylmethyl)-6-fluoro-1-methyl-1H-benzimidazole-5-carboxamide] | 85 |
| Cn1c(Nc2c(Cl)cccc2Cl)nc2cc(C(=O)NCc3ccccn3)c(F)cc21 [Example 548, 2-(2,6-Dichlorophenylamino)-6-fluoro-1-methyl-N-(pyridin-2-ylmethyl)-1H-benzimidazole-5-carboxamide] | 93 |
| O=C(Nc1ccc(Br)cc1)c1ccc2[nH]c(Nc3c(Cl)cccc3OC(F)(F)F)nc2c1 [Example 557, N-(4-Bromophenyl)-2-(2-chloro-6-(trifluoromethoxy)phenylamino)-1H-benzimidazole-5-carboxamide] | 69 |
| Cn1c(CNC(=O)c2cc3nc(Nc4c(Cl)cccc4Cl)n(C)c3cc2F)nc2ccccc21 [Example 563, 2-(2,6-Dichlorophenylamino)-6-fluoro-1-methyl-N-((1-methyl-1H-benzo[d]imidazol-2-yl)methyl)-1H-benzimidazole-5-carboxamide] | 75 |
| Cn1c(Nc2c(Cl)cccc2Cl)nc2cc(C(=O)NCc3cn4cc(Cl)ccc4n3)c(F)cc21 [Example 564, N-((6-Chloroimidazo[1,2-a]pyridin-2-yl)methyl)-2-(2,6-dichlorophenylamino)-6-fluoro-1-methyl-1H-benzimidazole-5-carboxamide] | 70 |

Other lines, results leading:

| inhibition at 10 µM [%] | Compound |
| --- | --- |
| 96 | Cn1c(Nc2c(F)cccc2Cl)nc2cc(C(=O)NCCC3CC3)c(F)cc21 [Example 502, 2-(2-Chloro-6-fluorophenylamino)-N-(2-cyclopropylethyl)-6-fluoro-1-methyl-1H-benzimidazole-5-carboxamide] |
| 98 | COc1cc2nc(Nc3c(Cl)cccc3Cl)[nH]c2cc1C(=O)NCc1ncccc1C [Example 507, 2-(2,6-Dichlorophenylamino)-6-methoxy-N-((3-methylpyridin-2-yl)-methyl)-1H-benzimidazole-5-carboxamide] |
| 97 | Cn1c(Nc2c(Cl)cccc2Cl)nc2cc(C(=O)NCC3CCC3)c(F)cc21 [Example 516, N-(Cyclobutylmethyl)-2-(2,6-dichlorophenylamino)-6-fluoro-1-methyl-1H-benzimidazole-5-carboxamide] |
| 98 | Cn1c(Nc2c(Cl)cccc2Cl)nc2cc(C(=O)Nc3cc(C#N)ccn3)ccc21 [Example 524, N-(4-Cyanopyridin-2-yl)-2-(2,6-dichlorophenylamino)-1-methyl-1H-benzimidazole-5-carboxamide] |
| 91 | Cn1c(Nc2c(Cl)cccc2Cl)nc2cc(C(=O)Nc3cc(N4CCCCC4)ccn3)c(F)cc21 [Example 533, 2-(2,6-Dichlorophenylamino)-6-fluoro-1-methyl-N-(4-(piperidin-1-yl)-pyridin-2-yl)-1H-benzimidazole-5-carboxamide] |
| 80 | Cc1ccnc(CNC(=O)c2cc3nc(Nc4c(Cl)cccc4Cl)n(C)c3cc2F)c1 [Example 534, 2-(2,6-Dichlorophenylamino)-6-fluoro-1-methyl-N-((4-methylpyridin-2-yl)methyl)-1H-benzimidazole-5-carboxamide] |
| 89 | Cn1c(Nc2c(Cl)cccc2Cl)nc2cc(C(=O)NCc3ncccc3F)c(F)cc21 [Example 536, 2-(2,6-Dichlorophenylamino)-6-fluoro-N-((3-fluoropyridin-2-yl)methyl)-1-methyl-1H-benzimidazole-5-carboxamide] |
| 99 | Cn1c(Nc2cc(C(N)=O)ccc2Cl)nc2cc(C(=O)Nc3ccc(Br)cc3)ccc21 [Example 537, N-(4-Bromophenyl)-2-(5-carbamoyl-2-chlorophenylamino)-1-methyl-1H-benzimidazole-5-carboxamide] |
| 94 | N#Cc1ccnc(NC(=O)c2ccc3[nH]c(Nc4c(Cl)cccc4Cl)nc3c2)c1 [Example 539, N-(4-Cyanopyridin-2-yl)-2-(2,6-dichlorophenylamino)-1H-benzimidazole-5-carboxamide] |
| 97 | Cn1c(Nc2c(Cl)cc(F)cc2Cl)nc2cc(C(=O)NCc3ncccc3C(F)(F)F)ccc21 [Example 542, 2-(2,6-Dichloro-4-fluorophenylamino)-1-methyl-N-((3-trifluoromethyl-pyridin-2-yl)methyl)-1H-benzimidazole-5-carboxamide] |
| 91 | Cn1c(Nc2ccc(C(N)=O)cc2Cl)nc2cc(C(=O)Nc3ccc(Br)cc3)ccc21 [Example 543, N-(4-Bromophenyl)-2-(4-carbamoyl-2-chlorophenylamino)-1-methyl-1H-benzimidazole-5-carboxamide] |
| 94 | CN(C)c1cccc(F)c1Nc1nc2cc(C(=O)Nc3ccc(Br)cc3)ccc2n1C [Example 551, N-(4-Bromophenyl)-2-(2-dimethylamino-6-fluorophenylamino)-1-methyl-1H-benzimidazole-5-carboxamide] |
| 84 | Cn1c(Nc2c(Cl)cccc2Cl)nc2cc(C(=O)Nc3cc(N4CCCC4)ccn3)c(F)cc21 [Example 554, 2-(2,6-Dichlorophenylamino)-6-fluoro-1-methyl-N-(4-(pyrrolidin-1-yl)-pyridin-2-yl)-1H-benzimidazole-5-carboxamide] |
| 74 | Cn1c(Nc2ccc(C(F)(F)F)cc2Cl)nc2cc(C(=O)Nc3ccc(Br)cc3)ccc21 [Example 556, N-(4-Bromophenyl)-2-(2-chloro-4-trifluoromethyl-phenylamino)-1-methyl-1H-benzimidazole-5-carboxamide] |
| 77 | CCc1ccc(C)nc1NC(=O)c1ccc2[nH]c(Nc3c(Cl)cccc3Cl)nc2c1 [Example 558, 2-(2,6-Dichlorophenylamino)-N-(3-ethyl-6-methylpyridin-2-yl)-1H-benzimidazole-5-carboxamide] |
| 77 | Cn1c(Nc2c(Cl)cccc2Cl)nc2cc(C(=O)NC3CCN(C4CC4)CC3)c(F)cc21 [Example 561, N-(1-Cyclopropylpiperidin-4-yl)-2-(2,6-dichlorophenylamino)-6-fluoro-1-methyl-1H-benzimidazole-5-carboxamide] |
| 97 | CN(C)C(=O)c1ccc(Nc2nc3cc(C(=O)Nc4ccc(Br)cc4)ccc3n2C)c(Cl)c1 [Example 562, N-(4-Bromophenyl)-2-(2-chloro-4-(dimethylcarbamoyl)-phenylamino)-1-methyl-1H-benzimidazole-5-carboxamide] |

Same assay, conditions: inhibition of mPGES-1 at 10 μM; 10 µM

| % inhib. [%] | Compound |
| --- | --- |
| 77 | Cn1c(Nc2c(Cl)cccc2Cl)nc2cc(C(=O)NCc3ccccn3)c(F)cc21 [Example 552, 2-(2,6-Dichlorophenylamino)-6-fluoro-1-methyl-N-(pyridin-2-ylmethyl)-1H-benzimidazole-5-carboxamide] |

— patent publication US8916599B2, “1H-benz imidazole-5-carboxamides as anti-inflammatory agents” (Orexo AB, priority 2008, dated 2014)
